Patent publication US20230192705A1, “SHP2 INHIBITORS, COMPOSITIONS AND USES THEREOF” (Betta Pharmaceuticals Co., Ltd, priority 2020, published 2023)

Target: T1, SHP2 (Homo sapiens, UniProt Q06124)
T1 sequence (Q06124 1-593): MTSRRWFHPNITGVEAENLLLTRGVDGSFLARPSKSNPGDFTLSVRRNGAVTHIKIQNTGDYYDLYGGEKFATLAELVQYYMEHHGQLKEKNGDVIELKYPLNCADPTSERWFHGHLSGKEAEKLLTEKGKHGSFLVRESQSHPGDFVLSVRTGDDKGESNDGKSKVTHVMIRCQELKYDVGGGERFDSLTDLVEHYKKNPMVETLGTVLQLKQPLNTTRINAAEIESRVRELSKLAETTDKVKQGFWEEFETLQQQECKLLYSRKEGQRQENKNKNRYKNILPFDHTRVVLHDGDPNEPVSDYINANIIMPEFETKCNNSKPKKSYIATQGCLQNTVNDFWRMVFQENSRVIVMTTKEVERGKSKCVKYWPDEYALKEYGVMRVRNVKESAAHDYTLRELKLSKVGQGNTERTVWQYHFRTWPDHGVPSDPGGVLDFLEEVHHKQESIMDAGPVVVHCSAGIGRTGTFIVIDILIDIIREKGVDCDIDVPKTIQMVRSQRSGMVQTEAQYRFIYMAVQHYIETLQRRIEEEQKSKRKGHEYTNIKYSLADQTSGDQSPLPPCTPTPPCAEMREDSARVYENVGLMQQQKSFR
Experiment: SHP2 allosteric inhibitor enzyme activity assay (DiFMUP fluorescence)
Format: biochemical
Details: class symbols
Procedure, shortened: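 SHP2 activated by 0.5 μM IRS1_pY1172(dPEG8)pY1222 peptide, 0.2 ng enzyme per well, 1 h at room temperature with compound (1 μM top, 3-fold series), then DiFMUP substrate 1 h. Buffer: 60 mM HEPES, 75 mM NaCl, 75 mM KCl, 0.05% BRIJ-35, 1 mM EDTA, 5 mM DTT. Fluorescence ex 340/em 450 nm; IC50 by variable-slope fit.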

| Compound | IC50 [µM] |
| --- | --- |
| C[C@@H]1OCC2(CCN(c3nc4[nH]nc(C5(c6ccccc6F)CC5)c4c(=O)[nH]3)CC2)[C@@H]1N [Example 294, 6-((3S,4S)-4-amino-3-methyl-2-oxa-8-azaspiro[4.5]decan-8-yl)-3-(1-(2-fluorophenyl)cyclopropyl)-1,5-dihydro-4H-pyrazolo[3,4-d]pyrimidin-4-one] | 0.02 to 0.06 |
| N[C@@H]1c2ccccc2CC12CCN(c1nc3[nH]nc(C4(c5cccs5)CCC4)c3c(=O)[nH]1)CC2 [Example 94, (S)-6-(1-amino-1,3-dihydrospiro[indene-2,4′-piperidin]-1′-yl)-3-(1-(thiophen-2-yl)cyclobutyl)-1,5-dihydro-4H-pyrazolo[3,4-d]pyrimidin-4-one] | ≤ 0.02 |
| N[C@@H]1c2ccccc2CC12CCN(c1nc3[nH]nc(C4(c5cccc(OC6CC6)c5)CC4)c3c(=O)[nH]1)CC2 [Example 227, (S)-6-(1-amino-1,3-dihydrospiro[indene-2,4′-piperidin]-1′-yl)-3-(1-(3-cyclopropoxyphenyl)cyclopropyl)-1,5-dihydro-4H-pyrazolo[3,4-d]pyrimidin-4-one] | ≤ 0.02 |
| CC1(C)CC=C(c2n[nH]c3nc(N4CCC5(CC4)Cc4ccccc4[C@H]5N)[nH]c(=O)c23)c2ccc(C(F)(F)F)nc21 [Example 145, (S)-6-(1-amino-1,3-dihydrospiro[indene-2,4′-piperidin]-1′-yl)-3-(8,8-dimethyl-2-(trifluoromethyl)-7,8-dihydroquinolin-5-yl)-1,5-dihydro-4H-pyrazolo[3,4-d]pyrimidin-4-one] | ≤ 0.02 |
| COc1ccc(C2(c3n[nH]c4nc(N5CCC6(CC5)CO[C@@H](C)[C@H]6N)[nH]c(=O)c34)CC2)cc1 [Example 304, 6-((3S,4S)-4-amino-3-methyl-2-oxa-8-azaspiro[4.5]decan-8-yl)-3-(1-(4-methoxyphenyl)cyclopropyl)-1,5-dihydro-4H-pyrazolo[3,4-d]pyrimidin-4-one] | 0.02 to 0.06 |
| CN1CC2(C=C(c3n[nH]c4nc(N5CCC6(CC5)Cc5ccccc5[C@H]6N)[nH]c(=O)c34)c3ccccc32)C1 [Example 171, (S)-6-(1-amino-1,3-dihydrospiro[indene-2,4′-piperidin]-1′-yl)-3-(1-methylspiro[azetidine-3,1′-inden]-3′-yl)-1,5-dihydro-4H-pyrazolo[3,4-d]pyrimidin-4-one] | ≤ 0.02 |
| C[C@@H]1OCC2(CCN(C3=NC(N)=C(C4(c5ccccc5)CC4)C4=NCCCN43)CC2)[C@@H]1N [Example 265, (3S,4S)-8-(8-amino-9-(1-phenylcyclopropyl)-3,4-dihydro-2H-pyrimido[1,6-a]pyrimidin-6-yl)-3-methyl-2-oxa-8-azaspiro[4.5]decan-4-amine] | > 0.06 |
| Cc1cc2c(nn1)CC(C)(C)C=C2c1n[nH]c2nc(N3CCC4(CC3)Cc3ccccc3[C@H]4N)[nH]c(=O)c12 [Example 164, (S)-6-(1-amino-1,3-dihydrospiro[indene-2,4′-piperidin]-1′-yl)-3-(3,7,7-trimethyl-7,8-dihydrocinnolin-5-yl)-1,5-dihydro-4H-pyrazolo[3,4-d]pyrimidin-4-one] | ≤ 0.02 |
| N[C@@H]1c2ccccc2CC12CCN(c1nc3[nH]nc(C4(c5ccnc(Cl)c5Cl)CC4)c3c(=O)[nH]1)CC2 [Example 48, (S)-6-(1-amino-1,3-dihydrospiro[indene-2,4′-piperidin]-1′-yl)-3-(1-(2,3-dichloropyridin-4-yl)cyclopropyl)-1,5-dihydro-4H-pyrazolo[3,4-d]pyrimidin-4-one] | ≤ 0.02 |
| Cc1ccccc1C1(c2n[nH]c3nc(N4CCC5(CC4)CO[C@@H](C)[C@H]5N)[nH]c(=O)c23)CC1 [Example 302, 6-((3S,4S)-4-amino-3-methyl-2-oxa-8-azaspiro[4.5]decan-8-yl)-3-(1-(o-tolyl)cyclopropyl)-1,5-dihydro-4H-pyrazolo[3,4-d]pyrimidin-4-one] | 0.02 to 0.06 |
| Nc1cccc(C2(c3n[nH]c4nc(N5CCC6(CC5)Cc5ccccc5[C@H]6N)[nH]c(=O)c34)CC2)c1 [Example 43, (S)-6-(1-amino-1,3-dihydrospiro[indene-2,4′-piperidin]-1′-yl)-3-(1-(3-aminophenyl)cyclopropyl)-1,5-dihydro-4H-pyrazolo[3,4-d]pyrimidin-4-one] | ≤ 0.02 |
| C[C@@H]1OCC2(CCN(c3nc4[nH]nc(C5(c6cccc(O)c6)CC5)c4c(=O)[nH]3)CC2)[C@@H]1N [Example 310, 6-((3S,4S)-4-amino-3-methyl-2-oxa-8-azaspiro[4.5]decan-8-yl)-3-(1-(3-hydroxyphenyl)cyclopropyl)-1,5-dihydro-4H-pyrazolo[3,4-d]pyrimidin-4-one] | 0.02 to 0.06 |
| C[C@@H]1CCC2(CCN(c3nc4[nH]nc(C5(c6ccccc6)CC5)c4c(=O)[nH]3)CC2)[C@@H]1N [Example 320, 6-((1R,2R)-1-amino-2-methyl-8-azaspiro[4.5]decan-8-yl)-3-(1-phenylcyclopropyl)-1,5-dihydro-4H-pyrazolo[3,4-d]pyrimidin-4-one] | 0.02 to 0.06 |
| N[C@@H]1c2ccccc2CC12CCN(c1nc3[nH]nc(C4=CCC5(CC5)c5ncccc54)c3c(=O)[nH]1)CC2 [Example 133, (S)-6-(1-amino-1,3-dihydrospiro[indene-2,4′-piperidin]-1′-yl)-3-(7′H-spiro[cyclopropane-1,8′-quinolin]-5′-yl)-1,5-dihydro-4H-pyrazolo[3,4-d]pyrimidin-4-one] | ≤ 0.02 |
| N[C@@H]1c2ccccc2CC12CCN(c1nc3[nH]nc(C4(c5coc6ccccc56)CC4)c3c(=O)[nH]1)CC2 [Example 250, (S)-6-(1-amino-1,3-dihydrospiro[indene-2,4′-piperidin]-1′-yl)-3-(1-(benzofuran-3-yl)cyclopropyl)-1,5-dihydro-4H-pyrazolo[3,4-d]pyrimidin-4-one] | ≤ 0.02 |
| N[C@@H]1c2ccccc2CC12CCN(c1nc3[nH]nc(C4=CCOc5cc(Cl)ccc54)c3c(=O)[nH]1)CC2 [Example 167, (S)-6-(1-amino-1,3-dihydrospiro[indene-2,4′-piperidin]-1′-yl)-3-(7-chloro-2H-chromen-4-yl)-1,5-dihydro-4H-pyrazolo[3,4-d]pyrimidin-4-one] | ≤ 0.02 |
| COc1cc(C2(c3n[nH]c4nc(N5CCC6(CC5)Cc5ccccc5[C@H]6N)[nH]c(=O)c34)CC2)ccn1 [Example 28, (S)-6-(1-amino-1,3-dihydrospiro[indene-2,4′-piperidin]-1′-yl)-3-(1-(2-methoxypyridin-4-yl)cyclopropyl)-1,5-dihydro-4H-pyrazolo[3,4-d]pyrimidin-4-one] | ≤ 0.02 |
| CSc1cccc(C2(c3n[nH]c4nc(N5CCC6(CC5)Cc5ccccc5[C@H]6N)[nH]c(=O)c34)CC2)c1 [Example 225, (S)-6-(1-amino-1,3-dihydrospiro[indene-2,4′-piperidin]-1′-yl)-3-(1-(3-(methylthio)phenyl)cyclopropyl)-1,5-dihydro-4H-pyrazolo[3,4-d]pyrimidin-4-one] | ≤ 0.02 |
| N[C@@H]1c2ccccc2CC12CCN(c1nc3[nH]nc(C4=C(F)CCc5nc(C(F)(F)F)ccc54)c3c(=O)[nH]1)CC2 [Example 187, (S)-6-(1-amino-1,3-dihydrospiro[indene-2,4′-piperidin]-1′-yl)-3-(6-fluoro-2-(trifluoromethyl)-7,8-dihydroquinolin-5-yl)-1,5-dihydro-4H-pyrazolo[3,4-d]pyrimidin-4-one] | ≤ 0.02 |
| CC1(C)C=C(c2n[nH]c3nc(N4CCC5(CC4)Cc4ccccc4[C@H]5N)[nH]c(=O)c23)c2cc(Br)cnc2C1 [Example 160, (S)-6-(1-amino-1,3-dihydrospiro[indene-2,4′-piperidin]-1′-yl)-3-(3-bromo-7,7-dimethyl-7,8-dihydroquinolin-5-yl)-1,5-dihydro-4H-pyrazolo[3,4-d]pyrimidin-4-one] | ≤ 0.02 |
| C[C@@H]1OCC2(CCN(c3nc4[nH]nc(C5(c6ccc7c(c6)OC(F)(F)O7)CC5)c4c(=O)[nH]3)CC2)[C@@H]1N [Example 308, 6-((3S,4S)-4-amino-3-methyl-2-oxa-8-azaspiro[4.5]decan-8-yl)-3-(1-(2,2-difluorobenzo[d][1,3]dioxol-5-yl)cyclopropyl)-1,5-dihydro-4H-pyrazolo[3,4-d]pyrimidin-4-one] | > 0.06 |
| CC1(C)Cc2nc(C(F)(F)F)ccc2C(c2n[nH]c3nc(N4CCC5(CC4)Cc4ccccc4[C@H]5N)[nH]c(=O)c23)=C1F [Example 189, (S)-6-(1-amino-1,3-dihydrospiro[indene-2,4′-piperidin]-1′-yl)-3-(6-fluoro-7,7-dimethyl-2-(trifluoromethyl)-7,8-dihydroquinolin-5-yl)-1,5-dihydro-4H-pyrazolo[3,4-d]pyrimidin-4-one] | ≤ 0.02 |
| Cn1ncc2c1CC(C)(C)C=C2c1n[nH]c2nc(N3CCC4(CC3)Cc3ccccc3[C@H]4N)[nH]c(=O)c12 [Example 150, (S)-6-(1-amino-1,3-dihydrospiro[indene-2,4′-piperidin]-1′-yl)-3-(1,6,6-trimethyl-6,7-dihydro-1H-indazol-4-yl)-1,5-dihydro-4H-pyrazolo[3,4-d]pyrimidin-4-one] | ≤ 0.02 |
